# Results reported in patent publication US11478440B2, “Combination of Elafibranor or derivatives thereof with an anti-NASH, anti-fibrotic or anti-cholestatic agent” (GENFIT, priority 2017, dated 2022).
# What was measured:
# [1] = test system: fibrosing NASH-model of rats fed a CDAA+1% cholesterol diet; experiment: Chronic CDAA+1% cholesterol rat model: hepatic collagen content (hydroxyproline); format: in vivo, Wistar rats; conditions: GFT505 3 mg/kg/d, OCA 10 mg/kg/d, alone or combined; 12 weeks in diet
# Procedure: (§1) The preventive effects of Elafibranor alone, OCA alone and the combination of both were assessed in a fibrosing NASH-model of rats fed a CDAA+1% cholesterol diet. 150-175 g male Wistar rats were fed a control (CSAA) diet, CDAA+1% cholesterol diet, or CDAA+1% cholesterol diet supplemented with Elafibranor 1, 3 and 10 mg/kg/day, OCA 10 and 30 mg/kg/day or combined drugs (Elafibranor 1, 3 and 10 mg/kg/day combined to OCA 10 mg/kg/day) for 12 weeks.
# (§2) The body weight and the food intake were monitored twice per week. On the last day of treatment, rats were sacrificed after a 6 h fasting period. The liver was rapidly excised for biochemical and histological studies.
# The hepatic collagen content was determined using the appropriate QuickZyme kit (Total collagen assay, cat #QZB-totcol2). The assay is based on the detection of hydroxyproline, which is a non-proteinogenic amino acid mainly found in the triple helix of collagen. Thus, hydroxyproline in tissue hydrolysates can be used as a direct measure of the amount of collagen present in the tissue (without discrimination between procollagen, mature collagen and collagen degradation products).
# Complete hydrolysis of tissue samples in 6M HCl at 95° C. is required before dosing the hydroxyproline. The assay results in the generation of a chromogen with a maximum absorbance at 570 nm. Results are expressed as mg of collagen/g of liver.
# [2] = test system: fibrosing NASH-model of rats fed a CDAA+1% cholesterol diet; experiment: Chronic CDAA+1% cholesterol rat model: hepatic gene expression (qPCR); format: in vivo, Wistar rats; conditions: liver; GFT505 3 mg/kg/d, OCA 10 mg/kg/d, alone or combined; 12 weeks
# Procedure: as §1, §2
# Total RNA was isolated from rat livers using RNeasy Mini Kit (Qiagen) following manufacturer's instructions. Total RNA were reverse transcribed into cDNA using M-MLV RT (Moloney Murine Leukemia Virus Reverse Transcriptase) (Invitrogen cat #28025) in 1×RT buffer (Invitrogen), 0.5 mM DTT (Invitrogen), 0.18 mM dNTPs (Promega), 200 ng pdN6 (Amersham) and 30 U of RNase inhibitor (Promega).
# Quantitative PCR was then carried out using the CFX96 TOUCH Real-Time PCR Detection System (Biorad). Briefly, the PCR reactions were performed in 96-WP format in 25 μl of total volume containing 1 μL of reverse transcription reaction, 0.5 μL of reverse and forward primers (10 pmol each), and 12.5 μl of 2×iQ SYBR Green Supermix (BioRad), using the following primer sequences:
# Expression levels were normalized using the expression of RPLP0 gene as a housekeeping gene of reference in samples. For each gene, the standard curves were drawn by selecting the best points (at least three points) in order to have PCR reaction efficiency close to 100% and a correlation coefficient close to 1. Expression levels were determined using the standard curve equation for both the housekeeping gene and the target gene (taking into account the specific PCR efficiency of each target gene).
# [3] = test system: fibrosing NASH-model of rats fed a CDAA+1% cholesterol diet; experiment: Chronic CDAA+1% cholesterol rat model: liver histology (picrosirius fibrosis surface, NASH lesions); format: in vivo, Wistar rats; conditions: GFT505 3 mg/kg/d, OCA 10 mg/kg/d, alone or combined; 12 weeks in diet
# Procedure: as §1, §2
# The liver slices were first fixed for 12 hours in formalin 4% solution. Then, the liver pieces were washed 30 minutes in PBS, and dehydrated in ethanol solutions (successive baths at 70, 80, 95 and 100% ethanol). The liver pieces were incubated in three different baths of Xylene (Sigma-Aldrich cat #534056), followed by two baths in liquid paraffin (56° C.). Liver pieces were then put into racks that were gently filled with HISTOWAX to completely cover the tissue.
# The paraffin blocks containing the tissue pieces were removed from the racks and stored at room temperature. The liver blocks were cut into 3 μm slices.
# Liver sections were deparaffinized, rehydrated and incubated for 3 minutes in Mayer's Hematoxylin (Microm, cat #F/C0303). Then, the liver sections were rinsed in water and incubated 1 minute in Eosin G (VWR, cat #1.09844.1000). Sections were rinsed in water then dehydrated, and mounted using the CV Mount medium (Leica, cat #14046430011).
# (§3) Liver sections were deparaffinized, rehydrated and incubated for 15 minutes in a solution of Fast Green FCF 0.1% (Sigma-Aldrich, cat #F7258) before rinsing in a bath of 0.5% acetic acid (Panreac, cat #131008.1611). Then, the liver sections were rinsed in water and incubated 30 minutes in a solution of 0.1% sirius red (Direct Red 80, Fluka cat #43665) in saturated aqueous picric acid (Sigma-Aldrich cat #P6744). Sections were then dehydrated, and mounted using the CV Mount medium (Leica, cat #14046430011).
# (§4) A technician blinded to the source of each liver specimen performed histological examinations. Virtual slides were generated using the Pannoramic 250 scanner from 3D Histech. For each animal, a score summarizing the main histological lesions of NASH was attributed according to the NASH Clinical Research Network (Kleiner 2005, Brunt 1999). Briefly, steatosis, lobular inflammation and hepatocytes ballooning were scored. The NAFLD Activity Score (NAS score) was established for each individual as the unweighted sum of the steatosis (0-3), lobular inflammation (0-3) and the ballooning (0-2) injury grading.
# (§5) Using Quant Center software (3D Histech, including Pattern Quant and Histo Quant modules), collagen-stained areas were quantified. Briefly, Pattern Quant was used to detect the tissue and measure its surface. Then, Histo Quant was used to detect the stained collagen content and measure its surface, based on a color threshold method. The fibrosis area was then expressed as the percentage of the collagen surface to the whole tissue per animal.
# TGFβ1-induced hHSC = experiment: α-SMA ELISA in TGFβ1-induced human primary hepatic stellate cells; format: cell-based
# Procedure: (§6) The human primary hepatic stellate cells (hHSC) (Innoprot) were cultured in STeCM medium (ScienCell cat #5301) that was supplemented with 2% fetal bovine serum (FBS, ScienCell cat #0010), 1% penicillin/streptomycin (ScienCell cat #0503) and stellate cell growth supplement (SteCGS; ScienCell cat #5352). Cell culture flasks were coated with Poly-L Lysine (Sigma cat #P4707) for a better adherence.
# For these experiments, a checkerboard matrix was generated. ELA and component (ii) stocks were serially diluted in DMSO in 5-points series in a row (ELA) and a 11-points series in a column (component (ii)) of a 96-well plate. Subsequently, the 5×11 combination matrix was generated by 1:1 mixing of all single agent concentrations. The test concentrations for each compound were chosen based on the respective IC50 of each compound as single agent obtained by measuring α-SMA content in the HSC model stimulated with TGF-β1.
# The human primary hepatic stellate cells (hHSC) (Innoprot) were cultured under standard conditions, as described above. The cells were subsequently plated at a density of 2×10^4 cells/well into 96-well plates for the measure of α-SMA by ELISA. The next day, cell-culture medium was removed, and cells were washed with PBS (Invitrogen cat #14190). hHSC were deprived for 24 hours in serum-free and SteCGS-free medium. For the treatments with ELA, component (ii) and the respective ELA/component (ii) combinations, the serum-deprived hHSC were preincubated for 1 hour with the compounds followed by addition of the profibrogenic stimuli TGF-β1 (PeproTech cat #100-21, 1 ng/mL) in serum-free and SteCGS-free medium for an additional 48 hour period.
# The level of α-SMA was measured using a Sandwich ELISA. Briefly, the wells of an ELISA plate were first coated with the capture antibody (mouse monoclonal anti-ACTA2, Abnova) at 4° C. overnight. After 3 washes in PBS+0.2% Tween 20, a blocking solution consisting of PBS+0.2% BSA was added for one hour followed by another washing cycle. The cell lysates were transferred into the wells for binding to the capture antibody for a period of 2 h at room temperature. After the washing procedure, the detection antibody (biotinylated mouse monoclonal anti-ACTA2, Abnova) was added for 2 hours at room temperature followed by 3 washes. For the detection, an HRP-conjugated Streptavidin (R&D Systems cat #DY998) was first applied for 30 min at room temperature. After washing, the HRP substrate TMB (BD, #555214) was added and incubated for 7 min at room temperature in the dark. Upon oxidation, TMB forms a water-soluble blue reaction product that becomes yellow with addition of sulfuric acid (solution stop), enabling accurate measurement of the intensity at 450 nm using a spectrophotometer. The developed color is directly proportional to the amount of α-SMA present in the lysate.
# as §6, with “Cell-culture” for “Cell culture”
# For these experiments, a checkerboard matrix was generated. CVC and Elafibranor stocks were serially diluted in DMSO in a 5-points series in a row (Elafibranor) and a 6-points series in a column (Cenicriviroc) of a 96-well plate. Subsequently, the […] combination matrix was generated by 1:1 mixing of all single agent concentrations. The test concentrations for each compound were chosen based on the respective IC50 of each compound as single agent obtained by measuring α-SMA content in the HSC model stimulated with TGF-β1.
# The human primary hepatic stellate cells (hHSC) (Innoprot) were cultured under standard conditions, as described above. […]
# [4] = test system: mice with NASH (CDFF-fed mice); experiment: Mouse fibrosing-NASH model (CDFF diet, 8 weeks); format: in vivo, C57Bl/6J mice
# Procedure: The preventive effects of the combinations of elafibranor with selonsertib, GKT-831 or GS-0976 were assessed in mice fed a choline-deficient, […] diet (CDAA) supplemented with 2% cholesterol, 30% milk fat diet and high fructose corn syrup 55 (55% fructose/45% glucose for a final concentration of 42 g/L) in drinking water (Mells et al J Nutr Biochem 2015) (CDFF diet). 5-6 weeks old male C57Bl/6J mice were fed a control (CSAA) diet (n=4), CDFF (n=12), or CDFF supplemented with elafibranor (1 or 3 mg/kg/day), selonsertib (30 mg/kg/day), GKT-831 ([…]) alone or in combination (n=8 per group) for 8 weeks.
# The body weight, the food and water intake were monitored twice per week. On the last day of treatment, plasma samples were obtained from retro-orbital blood sampling and mice were sacrificed after a 6 h-fasting period. The liver was rapidly excised for biochemical and histological analyses. All animal procedures were performed according to standard protocols and in accordance with the standard recommendations for the proper care and use of laboratory animals.
# The liver slices were fixed in a formalin 4% solution. Then, the liver pieces were washed 30 minutes in PBS, and dehydrated in ethanol solutions (successive baths at 70, 80, 95 and 100% ethanol). The liver pieces were incubated in three different baths of Xylene (Honeywell cat #534056), followed by two baths in liquid paraffin (59° C.). Liver pieces were then put into racks that were gently filled with HISTOWAX to completely cover the tissue.
# Liver sections were deparaffinized, rehydrated and incubated for 3 minutes in Mayer's Hematoxylin (Microm, cat #F/C0303). Then, the liver sections were rinsed in water and incubated 1 minute in a Eosin Y 0.5% alcoholic (VWR, cat #1.02439.0500) and Erythrosin 0.5% solution (VWR, cat #1.15936.0010), and rinsed in with ethanol. Sections were then incubated for 2 minutes in Safranin, and were eventually dehydrated and mounted using the CV Mount medium (Leica, cat #046430011).
# as §3
# as §4, with “hepatocyte” for “hepatocytes”, “(NAS)” for “(NAS score)”
# as §5
# The hepatic collagen content was determined using the appropriate QuickZyme kit (Total collagen assay, cat #QZB-totcol2). The assay is based on the detection of hydroxyproline, which is a non-proteinogenic amino acid mainly found in the triple helix of collagen. […]
smiles,measurement,setting,value
"CC[C@H]1[C@@H](O)[C@@H]2[C@H](CC[C@]3(C)[C@@H]([C@H](C)CCC(=O)O)CC[C@@H]23)[C@@]2(C)CC[C@@H](O)C[C@@H]12 [OCA, obeticholic acid, reference compound]","Hepatic collagen content, percentage over the untreated CDAA + 1% cholesterol rats",[1],67% ± 23%
same,"CCR5 mRNA level (marker of inflammation), percentage over the untreated CDAA + 1% cholesterol rats",[2],81% ± 28%
same,"TGFβ1 mRNA level, percentage over the untreated CDAA + 1% cholesterol rats",[2],110% ± 23%
same,"TIMP1 mRNA level, percentage over the untreated CDAA + 1% cholesterol rats",[2],110% ± 43%
same,"αSMA mRNA level, percentage over the untreated CDAA + 1% cholesterol rats",[2],109% ± 68%
same,"Fibrosis surface, percentage over the untreated CDAA + 1% cholesterol rats",[3],74% ± 45%
"CCCCOCCOc1ccc(-c2ccc3c(c2)/C=C(/C(=O)Nc2ccc([S@@+]([O-])Cc4cncn4CCC)cc2)CCCN3CC(C)C)cc1 [CVC, Cenicriviroc, reference compound]","antifibrotic activity (α-SMA), single agent",TGFβ1-induced hHSC; 5 μM of CVC alone,does not show any antifibrotic activity
same,"antifibrotic activity (α-SMA), single agent","TGFβ1-induced hHSC; TGFβ1-activated hHSC, dose range",did not show a significant effect at all doses
"COc1ccccc1[C@H](Cn1c(=O)n(C(C)(C)C(=O)O)c(=O)c2c(C)c(-c3ncco3)sc21)OC1CCOCC1 [GS-0976, reference compound]",effect on liver fat and body weight,[4]; GS-0976 30 mg/kg/day alone,mild beneficial effect
"Cc1cc(F)c(C(=O)Nc2cccc(-c3nncn3C(C)C)n2)cc1-n1cnc(C2CC2)c1 [Selonsertib, reference compound]","hepatic fibrosis (histology, hepatic collagen content, PIIINP and TIMP-1)","[4]; elafibranor 3 mg/kg/day, selonsertib 30 mg/kg/day, alone or combined","improved hepatic fibrosis in this model, albeit to a minor extent than elafibranor"
"CN(C)c1cccc(-c2c3c(=O)n(-c4ccccc4Cl)[nH]c3cc(=O)n2C)c1 [GKT-831, 2-(2-chlorophenyl)-4-[3-(dimethylamino)phenyl]-5-methyl-1H-pyrazolo[4,3-c]pyridine-3,6(2H,5H)-dione, reference compound]",effect on NASH and fibrosis,[4]; GKT-831 60 mg/kg/day alone,no beneficial effect
